# Experiments:
# hA2BAR = hA2BAR (Homo sapiens (Human), UniProt P29275); test: Effect on NECA-induced cyclic AMP accumulation at A2B receptor; also: NECA (150 nM)-induced cyclic AMP accumulation; format: cell-based; settings: read-out: hA2BAR % inhib. at 10 μM
# human A1AR = human A1AR (Homo sapiens (Human), UniProt P30542); test: Binding assay to the human A1AR ([3H]R-PIA); settings: 1 h; 10 μM; [3H]R-PIA (2.0 nM), CHO cells; Table 2; read-out: hA1AR % displ. at 10 μM
# Method: (§1) CHO (Chinese hamster ovary) cells expressing the recombinant human ARs (HEK-293 cells were used for the human A2AAR) were cultured in DMEM and F12 (1:1) supplemented with 10% fetal bovine serum, 100 units/ml penicillin, […] streptomycin and 2 μmol/ml glutamine. Cells were harvested by trypsinization. After homogenization and suspension, cells were centrifuged at 500 g for 10 min, and the pellet was re-suspended in 50 mM Tris.HCl buffer (pH 7.4) containing 10 mM MgCl2. The suspension was homogenized with an electric homogenizer for 10 sec, and was then re-centrifuged at 20,000 g for 20 min at 4° C. The resultant pellets were resuspended in buffer in the presence of 3 Units/mL adenosine deaminase, and the suspension was stored at −80° C. until the binding experiments. The protein concentration was measured using the Bradford assay.
# (§2) For binding to the human A1AR, [^3H]R-PIA (2 nM) was incubated with membranes (40 μg/tube) from CHO cells stably expressing the human A1AR at 25° C. for 60 min in 50 mM Tris.HCl buffer (pH 7.4; MgCl2, 10 mM) in a total assay volume of 200 μL. Nonspecific binding was determined using 10 μM of N^6-cyclopentyladenosine. For human A2A AR binding, membranes (20 μg/tube) from HEK-293 cells stably expressing the human A2A AR were incubated with 15 nM [^3H]CGS21680 at 25° C. for 60 min in 200 μL of 50 mM Tris.HCl, pH 7.4, containing 10 mM MgCl2. N-5′-ethyluronamidoadenosine (10 μM) was used to define nonspecific binding. Reaction was terminated by filtration with GF/B filters.
# human A3AR = human A3AR (Homo sapiens (Human), UniProt P0DMS8); test: Competitive binding assay to the human A3AR ([125I]I-AB-MECA); settings: for inhibition at 10 µM: 1 h, [125I]I-AB-MECA (0.5 nM), CHO cells, Table 2, read-out: hA3AR % displ. at 10 μM
# Sequence of human A3AR (P0DMS8 whole entry): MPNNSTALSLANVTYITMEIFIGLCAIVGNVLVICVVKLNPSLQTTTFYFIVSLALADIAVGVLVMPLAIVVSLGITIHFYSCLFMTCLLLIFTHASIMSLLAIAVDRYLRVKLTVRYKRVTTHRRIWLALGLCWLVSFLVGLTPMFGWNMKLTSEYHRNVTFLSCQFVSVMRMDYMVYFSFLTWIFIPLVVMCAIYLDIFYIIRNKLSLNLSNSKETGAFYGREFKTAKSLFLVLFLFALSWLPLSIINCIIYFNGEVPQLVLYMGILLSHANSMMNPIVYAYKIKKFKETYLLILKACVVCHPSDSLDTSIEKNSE
# Method: as §1
# Each tube in the competitive binding assay contained 100 μl membrane suspension (20 μg protein), 50 μl [^125I]-AB-MECA (0.5 nM), and 50 μl of increasing concentrations of the test ligands in Tris.HCl buffer (50 mM, pH 8.0) containing 10 mM MgCl2, 1 mM EDTA. Nonspecific binding was determined using 10 μM of 5′-N-ethylcarboxamidoadenosine in the buffer. The mixtures were incubated at 25° C. for 60 min. Binding reactions were terminated by filtration through Whatman GF/B filters under reduced pressure using a MT-24 cell harvester (Brandell, Gaithersburgh, Md., USA). Filters were washed three times with 9 mL ice-cold buffer. Radioactivity was determined in a Beckman 5500B γ-counter.
# human A3ARs [1] = target: T1, human A3ARs (Homo sapiens (Human), UniProt P0DMS8); test: Dissociation kinetics of [125I]I-AB-MECA from human A3ARs; format: binding; settings: 0.5 h, % decrease of dissociation at 30 min, residual binding of [125I]AB-MECA after 30 min = 100%, Table 2, read-out: hA3AR Ag. Dissociation at 10 μM
# T1 sequence (P0DMS8 whole entry): as above
# Method: The dissociation of [^125I]I-AB-MECA was measured as follows. Membranes (20 μg) were preincubated at 25° C. with 0.5 nM [^125I]I-AB-MECA, in a total volume of 100 μl of Tris-HCl buffer (50 mM, pH 8.0) containing 10 mM MgCl2, and 1 mM EDTA for 60 min. The dissociation was then initiated by the addition of 3 μM Cl-IB-MECA with or without allosteric modulators. The time course of dissociation of total binding was measured by rapid filtration at appropriate time intervals. Nonspecific binding was measured after 60-min incubation in the presence of 3 μM Cl-IB-MECA. Further assay was as described above.
# human A3ARs [2] = target: T1, human A3ARs; test: Cyclic AMP accumulation assay, efficacy at hA3AR; format: cell-based; settings: compared to maximal effect by 2-Cl-IB-MECA alone (control = 100%)
# Method: Intracellular cyclic AMP levels were measured with a competitive protein binding method (Nordstedt and Fredholm, 1990). CHO cells that expressed recombinant human A3ARs were harvested by trypsinization. After centrifugation and resuspension in medium, cells were plated in 24-well plates in 0.5 ml medium. After 24 hr, the medium was removed and cells were washed three times with 1 ml DMEM, containing 50 mM HEPES, pH 7.4. Cells were then treated with agonists and/or test compounds in the presence of rolipram (10 μM) and adenosine deaminase (3 units/ml). After 45 min forskolin (10 μM) was added to the medium, and incubation was continued an additional 15 min. The reaction was terminated by removing the supernatant, and cells were lysed upon the addition of 200 μL of 0.1 M ice-cold HCl. The cell lysate was resuspended and stored at −20° C. For determination of cyclic AMP production, protein kinase A (PKA) was incubated with [^3H]cyclic AMP (2 nM) in K2HPO4/EDTA buffer (K2HPO4, 150 mM; EDTA, 10 mM), 20 μL of the cell lysate, and 30 μL 0.1 M HCl or 50 μL of cyclic AMP solution (0-16 pmol/200 μL for standard curve). Bound radioactivity was separated by rapid filtration through Whatman GF/C filters and washed once with cold buffer. Bound radioactivity was measured by liquid scintillation spectrometry.
# human A2A AR = human A2A AR (Homo sapiens (Human), UniProt P29274); test: Binding assay to the human A2A AR ([3H]CGS21680); settings: 10 μM; [3H]CGS 21680 (15 nM), HEK293 cells; Table 2
# Sequence of human A2A AR (P29274 whole entry): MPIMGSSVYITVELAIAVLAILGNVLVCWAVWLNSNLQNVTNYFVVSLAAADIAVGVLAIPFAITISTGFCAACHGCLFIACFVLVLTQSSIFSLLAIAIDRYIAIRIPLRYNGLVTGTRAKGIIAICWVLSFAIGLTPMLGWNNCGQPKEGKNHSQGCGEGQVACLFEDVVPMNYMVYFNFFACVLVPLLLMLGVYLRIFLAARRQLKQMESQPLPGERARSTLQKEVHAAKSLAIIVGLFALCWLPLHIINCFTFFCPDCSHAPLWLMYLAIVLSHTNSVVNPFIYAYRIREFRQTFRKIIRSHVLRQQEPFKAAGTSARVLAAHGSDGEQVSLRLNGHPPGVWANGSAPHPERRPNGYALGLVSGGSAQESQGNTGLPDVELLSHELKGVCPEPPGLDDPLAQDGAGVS
# Method: as §1, §2
# Sequence of human A1AR (P30542 whole entry): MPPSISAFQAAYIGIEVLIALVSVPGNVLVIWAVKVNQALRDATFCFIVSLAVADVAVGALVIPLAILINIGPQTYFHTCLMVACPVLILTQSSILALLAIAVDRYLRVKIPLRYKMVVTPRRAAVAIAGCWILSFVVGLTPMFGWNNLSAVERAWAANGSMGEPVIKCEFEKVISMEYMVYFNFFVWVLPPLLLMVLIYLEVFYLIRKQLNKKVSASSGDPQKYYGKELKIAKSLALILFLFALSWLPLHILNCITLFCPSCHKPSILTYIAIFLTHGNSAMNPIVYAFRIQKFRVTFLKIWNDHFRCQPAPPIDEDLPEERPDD
# Sequence of hA2BAR (P29275 whole entry): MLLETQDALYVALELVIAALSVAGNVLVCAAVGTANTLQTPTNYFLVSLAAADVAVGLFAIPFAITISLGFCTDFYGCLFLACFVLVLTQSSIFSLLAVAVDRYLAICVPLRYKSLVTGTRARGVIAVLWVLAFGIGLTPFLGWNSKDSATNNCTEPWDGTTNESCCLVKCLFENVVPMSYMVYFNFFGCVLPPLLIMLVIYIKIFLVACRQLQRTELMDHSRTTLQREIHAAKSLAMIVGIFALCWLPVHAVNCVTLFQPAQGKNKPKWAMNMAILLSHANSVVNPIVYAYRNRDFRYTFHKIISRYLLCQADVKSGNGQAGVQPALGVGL
SMILES,inhibition at 10 µM (hA2BAR),inhibition at 10 µM (human A1AR),inhibition at 10 µM (human A3AR),"affinity to orthosteric versus allosteric binding sites (selective affinity) (human A3AR; orthosteric sites of A1, A2A, A2B, A3 receptors vs allosteric site of A3 adenosine receptor)",activity at 10 µM (human A3ARs [1]),% Increase of efficacy at hA3AR at 10 μM (human A3ARs [2]),hA2AAR % displ. at 10 μM (human A2A AR),melting point
"Clc1ccc(Nc2nc3ccccc3c3[nH]c(C4CCCCCC4)nc23)cc1Cl [Compound 42, N-(3,4-Dichloro-phenyl)-2-cycloheptyl-1H-imidazo[4,5-c]quinolin-4-amine]",-7.3%,-4%,68%,selective affinity,130 ± 2%,115 ± 7%,−2%,236 to 238 °C
Clc1ccc(Nc2nc3ccccc3c3[nH]c(-c4ccco4)nc23)cc1Cl [Compound 43],9%,-4%,78%,–,98 ± 3%,95 ± 4%,70%,135 to 138 °C
"Clc1ccc(Nc2nc3ccccc3c3[nH]cnc23)cc1Cl [Compound 46, N-(3,4-Dichloro-phenyl)-2-1H-imidazo[4,5-c]quinolin-4-amine]",10.2%,1.8%,39%,–,91 ± 7%,92 ± 4%,−0.8%,167 to 172 °C
"CCCCCc1nc2c(Nc3ccc(Cl)c(Cl)c3)nc3ccccc3c2[nH]1 [Compound 47, N-(3,4-Dichloro-phenyl)-2-pentyl-1H-imidazo[4,5-c]quinolin-4-amine]",-9.3%,43.9%,84%,–,116 ± 5%,102 ± 5%,−1%,195 to 200 °C

# Source: patent US9326978B2, “A3 adenosine receptor allosteric modulators” (The United States of America, Represented by the Secretary, …, priority 2006, dated 2016)
